The subject of test [1] is MDA-MB-231 cells. Kind of test: Matrigel invasion assay (Boyden chamber). The class given is cell-based, human. Particulars: for Invasion: MDA-MB-231, Boyden chamber, matrigel. In short, it runs like this:
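MDA-MB-231 cells were pretreated overnight with compound (1, 10, 17.5, 25, 50 μM). 10^5 cells in serum-free 0.1% BSA medium with compound were placed on 8 μm membranes coated with Matrigel (125 μg/cm^2), with 10% FBS plus compound below. After 6 h at 37 °C, cells on the filter underside were Diff-Quick stained and counted.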

Test [2] concerns MDA231. Kind of test: Cytoskeleton analysis, actin staining (FITC-phalloidin). The class given is cell-based, human. The method, boiled down: (§1)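 Subconfluent cells on coverslips were exposed to compound at 1, 10, 17.5, 25 or 50 μM, or to vehicle, for 24 h. They were then formaldehyde-fixed, Triton-permeabilized and blocked. Actin was stained with 0.5 μg/ml FITC-phalloidin for 1 h and imaged by inverted fluorescence microscopy.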

Test [3] deals with Ras. Kind of test: Ras-dependant signaling pathway analysis (reporter system). The class given is cell-based. More on the design: key: −: no effect of the compound was observed; +: an effect of the compound was observed. The method, boiled down: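 Ras and Rac signalling were measured with reporter systems. For colony formation, NIH3T3 cells were transfected with RasV12 or RacV12 plus neomycin plasmids, then grown 2-3 weeks in 400 μg/ml geneticin with compound at 1, 10, 17.5, 25 or 50 μM. Fuchsin-stained colonies of ≥50 cells were counted.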

Test [4] concerns Rac. Description: Rac-dependant signaling pathway analysis (reporter system). The class given is cell-based. More on the design: key: −: no effect of the compound was observed; +: an effect of the compound was observed. The procedure:
The impact of the compounds on Ras and Rac signaling pathways was analysed with two reporter systems described by Imler (Nature 1988) and Lin (Science, 1995) respectively on one hand, and by a colony formation assay in the presence of constitutively activated Ras (RasV12) and Rac (RacV12) on the other hand. For this latter experiment, fifty percent confluent NIH3T3 cells in a 10 cm diameter petri dish were transfected with 0.5 μg pSV2-RasV12 or 0.5 μg pEXV RacV12 plasmids plus 100 ng of pSV2-neomycin plasmid using Lipofectamine-Plus reagent (Invitrogen) according to the manufacturer's instructions. Forty-eight hours later, cells were trypsinised, splitted to ⅓, and incubated in the presence of complete medium supplemented with 400 μg/ml geneticin (Invitrogen) and different doses of compound (1, 10, 17.5, 25 and 50 μM) until emerging resistant clones appear (2-3 weeks). The medium was renewed every 3 days. Colonies with a minimum of 50 cells were counted after staining with Fuschin 2%.

Test [5] relates to MDA-MB-231 cells. Description: Migration assay (Boyden chamber, non-coated filters). It counts as cell-based, human. The note with it: for Migration: MDA-MB-231, Boyden chamber. The method, boiled down: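 MDA-MB-231 cells were pretreated overnight with compound (1, 10, 17.5, 25 and 50 μM), then 10^5 cells placed in the upper chamber in serum-free medium with 0.1% BSA plus compound; lower chamber held 10% FBS plus compound as chemoattractant. After 6 hours at 37° C on non-coated filters, migrated underside cells were stained and counted by microscopy.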

The subject of test [6] is NIH3T3 mouse fibroblasts. Description: Cytotoxicity assay (MTT), 6 days. The note with it: NIH3T3, 144 h, 6 days of treatment, read-out: Toxicity 6d (IC 50, μM) NIH3T3. It counts as cell-based. In short, it runs like this: (§2)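 MTT read-out at 550 nm after 6-day exposure to compound (0–50 μM, 1% DMSO). MTT 0.5 mg/ml in PBS, 3 h, 37° C; crystals solubilized in 100% DMSO. IC50 from surviving fraction; triplicates.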

For test [7], the system named is MRC-5. Kind of test: Cytotoxicity assay (MTT), 6 days. The class given is cell-based. The note with it: Homo sapiens, MRC5, 144 h, 6 days of treatment, read-out: Toxicity 6d (IC 50, μM) MRC-5. In short, it runs like this: as §2
The test system of test [8] is H460. Description: Cytoskeleton analysis, actin staining (FITC-phalloidin). It counts as cell-based, human. The note with it: H460 tumor cells. The method, boiled down: as §1
In test [9] the test system is HCT116. Described as above. The class given is cell-based, human. The note with it: HCT116 tumor cells. In short, it runs like this:
as §1

Data on 2 compounds can be found in US20050054629A1, “Compounds and methods of treating cell proliferative diseases” (priority 2002, published 2005).

For `CCCc1c(OCCCCCOc2coc(CO)cc2=O)ccc(Cl)c1Cl` [EH22900, 5-[5-(3,4-Dichloro-2-propylphenyloxy)pentyloxy]-2-(hydroxymethyl)-4H-pyran-4-one], in test [1], the “concentration giving significant inhibition of invasive properties of MDA-MB-231 cells” value worked out at 17.5 µM and the Invasion entry is on record as “Decrease”. The MDA-MB-231 spreading result in test [2] was “increased”. In test [2] (24 h treatment), the “Cell architecture modification actin staining MDA231” value is listed as “cell spreading”. Moreover, the “Small GTPases activities Ras” value in test [3] was “−”. Further, the “Small GTPases activities Rac” value in [4] was “−”. Moreover, in test [5], the “concentration at which inhibition of serum-induced migration was observed” value was 25 µM and the Migration result is recorded as “inhibition”. For the same compound, in [6], the IC50 stood at 30 µM. For the same compound, in test [7], the IC50 stood at 25 µM.
For the compound `C/C=C/c1oc(CO)cc(=O)c1OCCCCCOc1ccc(Cl)c(Cl)c1CCC` [EH31101, (E)-3-[5-(3,4-Dichloro-2-propylphenyloxy)pentyloxy]-6-(hydroxymethyl)-2-(propen-1-yl)-4H-pyran-4-one], in test [1], the “concentration giving an increase in invasive properties of MDA-MB-231 cells” value amounted to 10 µM and the Invasion result is listed as “Increase”. Moreover, the “concentration at which dose-dependant increase in spreading and disruption of cell-to-cell junctions was observed” value in test [8] was 25 µM. Also, the “concentration at which dose-dependant increase in spreading and disruption of cell-to-cell junctions was observed” value in test [9] is 10 µM. The “Small GTPases activities Ras” value in test [3] is on record as “−”. For the same compound, in test [4], the “Small GTPases activities Rac” value was “−”. In test [5], the “concentration at which inhibition of serum-induced migration was observed” value is 10 µM and the Migration entry was “no effect”. Moreover, the IC50 in [6] was over 50 µM.
